Test results reported in ChEMBL document CHEMBL1131194, “Covalent modification of cyclooxygenase-2 (COX-2) by 2-acetoxyphenyl alkyl sulfides, a new class of selective COX-2 inactivators” (J Med Chem, 1998).

How the values were obtained:
[1] = target: T1, Prostaglandin G/H synthase 1 (Ovis aries, UniProt P05979); assay: Inhibitory concentration in DMSO with purified ovine Prostaglandin G/H synthase 1 (COX-1).
T1 sequence (P05979 whole entry): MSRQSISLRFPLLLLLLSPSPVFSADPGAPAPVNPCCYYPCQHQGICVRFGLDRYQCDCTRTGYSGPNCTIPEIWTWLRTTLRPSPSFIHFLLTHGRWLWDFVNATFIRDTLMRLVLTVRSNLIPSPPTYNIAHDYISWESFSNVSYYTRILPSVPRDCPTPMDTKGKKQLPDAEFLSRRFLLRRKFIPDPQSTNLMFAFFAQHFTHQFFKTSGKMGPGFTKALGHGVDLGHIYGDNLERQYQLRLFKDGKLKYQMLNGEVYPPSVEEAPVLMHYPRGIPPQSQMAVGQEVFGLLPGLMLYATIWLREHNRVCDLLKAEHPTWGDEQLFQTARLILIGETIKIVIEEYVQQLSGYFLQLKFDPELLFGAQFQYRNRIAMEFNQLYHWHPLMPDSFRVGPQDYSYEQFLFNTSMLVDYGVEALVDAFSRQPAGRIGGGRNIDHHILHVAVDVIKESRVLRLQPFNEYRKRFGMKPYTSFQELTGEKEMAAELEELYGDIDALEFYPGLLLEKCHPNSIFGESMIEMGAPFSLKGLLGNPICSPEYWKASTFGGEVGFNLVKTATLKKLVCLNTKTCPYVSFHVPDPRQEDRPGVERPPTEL

[2] = target: T2, Prostaglandin G/H synthase 2 (Homo sapiens, UniProt P35354); assay: Inhibitory concentration in DMSO with purified human Prostaglandin G/H synthase 2 (COX-2)
T2 sequence (P35354 whole entry): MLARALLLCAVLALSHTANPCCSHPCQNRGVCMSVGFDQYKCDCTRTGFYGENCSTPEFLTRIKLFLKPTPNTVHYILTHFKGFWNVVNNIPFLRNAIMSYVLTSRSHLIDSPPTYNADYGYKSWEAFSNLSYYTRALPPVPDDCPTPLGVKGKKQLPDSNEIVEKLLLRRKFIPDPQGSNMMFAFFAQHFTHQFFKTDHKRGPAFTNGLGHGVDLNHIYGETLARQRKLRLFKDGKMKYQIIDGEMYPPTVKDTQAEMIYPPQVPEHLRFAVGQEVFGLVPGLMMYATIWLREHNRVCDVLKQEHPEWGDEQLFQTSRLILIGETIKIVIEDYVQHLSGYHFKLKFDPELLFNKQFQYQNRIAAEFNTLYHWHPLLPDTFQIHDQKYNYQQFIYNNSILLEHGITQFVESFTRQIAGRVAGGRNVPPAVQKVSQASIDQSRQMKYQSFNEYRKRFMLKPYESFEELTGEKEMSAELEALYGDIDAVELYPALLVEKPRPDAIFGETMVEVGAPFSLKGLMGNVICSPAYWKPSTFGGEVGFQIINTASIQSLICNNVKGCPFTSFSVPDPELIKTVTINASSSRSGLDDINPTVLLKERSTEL

SMILES | IC50 [1] [µM] | IC50 [2] [µM]
CCCC/C=C/CSc1ccccc1OC(C)=O | 22 | –
CCCCCCC[Se]c1ccccc1OC(C)=O | 12 | 12
CC(=O)Oc1ccccc1SCc1ccccc1 | > 400 | –
CCCCCCC[S+]([O-])c1ccccc1OC(C)=O (configuration not stated) | > 40 | > 40
CC#CCSc1ccccc1OC(C)=O | 35 | –
CC(=O)Oc1ccccc1SCCCCCCI | 70 | 10
CCCCCCCCSc1ccccc1OC(C)=O | > 40 | > 40
CSc1ccccc1OC(C)=O | > 5000 | –
CCCOCCCSc1ccccc1OC(C)=O | > 50 | > 50
CCCCCCCCc1ccccc1OC(C)=O | > 40 | > 40
CC(=O)Oc1ccccc1SCCCCCBr | 34 | 9.5
CC(=O)Oc1ccccc1SCCCOc1ccccc1 | > 1000 | > 1000
CCCCC#CCSc1ccccc1OC(=O)CC | > 40 | > 40
CCCCCCCCCSc1ccccc1OC(C)=O | > 40 | > 40
CCCCC#CCOc1ccccc1OC(C)=O | > 40 | > 40
CCCCSc1ccccc1OC(C)=O | 40 | –

SMILES | IC50 [1] [µM] | IC50 [2] [µM]
CCCCC#CC(C)Sc1ccccc1OC(C)=O (configuration not stated) | 15 | 7
CCCCCCCOc1ccccc1OC(C)=O | > 40 | > 40
CCCCCCCS(=O)(=O)c1ccccc1OC(C)=O | > 40 | > 40
CC(=O)Oc1ccccc1SC1CCCCC1 | > 40 | > 40
CCCCCCCN(C)c1ccccc1OC(C)=O | > 40 | > 40
CC(=O)OCCCCCSc1ccccc1OC(C)=O | 50 | 50
CC(=O)Oc1ccccc1SCCCCCC(=O)O | 50 | 50
CC(=O)Oc1ccccc1SCCc1ccccc1 | > 150 | –
CC(=O)Oc1ccccc1SCCCCCCBr | 25 | 12
CC(=O)Oc1ccccc1SC1CCCCCC1 | > 40 | > 40
CC(=O)Oc1ccccc1SCCCCCO | > 50 | > 50
CC(=O)Oc1ccccc1SCCCCC(=O)O | > 50 | > 50
CC(=O)Oc1ccccc1SCCCc1ccccc1 | > 1000 | > 1000
CC(=O)Oc1ccccc1SCCCCC#N | > 50 | > 50
CCCCC#CCSc1ccccc1OC(C)=O | 17 | –
CCC(=O)Oc1ccccc1SC | > 1000 | > 1000
